Experimental findings from US12214036B2, “Combination therapy comprising AXL/MER and PD-1/PD-L1 inhibitors” (Incyte Corporation, priority 2020, dated 2025) are described below.

For assay [1], the target named is T1, AXL (Homo sapiens, UniProt P30530).
T1 construct: recombinant phosphorylated forms of the kinase domains for AXL, MER and TYRO3; purchased ThermoFisher Scientific PV4275
T1 sequence (P30530 536-807 limits assumed): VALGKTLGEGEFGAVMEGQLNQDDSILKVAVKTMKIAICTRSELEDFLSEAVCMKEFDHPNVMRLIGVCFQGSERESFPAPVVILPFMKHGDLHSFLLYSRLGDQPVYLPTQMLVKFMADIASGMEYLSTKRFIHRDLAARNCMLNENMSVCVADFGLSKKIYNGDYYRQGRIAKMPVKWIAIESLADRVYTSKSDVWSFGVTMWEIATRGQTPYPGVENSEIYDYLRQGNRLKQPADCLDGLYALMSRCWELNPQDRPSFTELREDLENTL
The assay can be described thus: TR-FRET kinase assay, phospho-AXL. The class given is biochemical. The settings on record: average from multiple lots, n=18; read-out: IC50 against AXL. The method, then: (§1) The biochemical potency of Compound 1 to inhibit the enzymatic activity of TAM family members was investigated by TR-FRET assays using recombinant phosphorylated forms of the kinase domains for AXL, MER and TYRO3.
(§2) Phospho-AXL (pAXL), cMER and Tyro3 kinase activities were measured by time-resolved fluorescence energy transfer (TR-FRET) assays. Autophosphorylation of AXL was carried out before the kinase assay by incubating the recombinant AXL protein (ThermoFisher Scientific; #PV4275) in buffer containing 50 mM Tris, pH 7.5, 0.2 mg/mL AXL, 5 mM ATP, 20 mM MgCl2 and 2 mM dithiothreitol (DTT) at room temperature for 1 hour. The kinase assay buffer contained 50 mM HEPES, pH 7.5, 10 mM MgCl2, 1 mM EGTA, 0.01% NP-40 and 2 mM DTT. Enzyme solutions of 0.69 nM phospho-AXL, or 0.088 nM cMER (Carna Biosciences, Kobe, Japan; #08-108) or 0.137 nM TYRO3 (Life Technologies, PR7480A) were prepared in assay buffer. […] The plate was incubated for 30 minutes at room temperature, and homogenous time resolved fluorescence (HTRF) signal was measured on a PheraStar FS plate reader (BMG Labtech, Ortenberg, Germany). Percent inhibition was calculated for each concentration, and half maximal inhibitory concentration (IC50) value was generated from curve fitting with GraphPad Prism software (San Diego, Calif.).
(In general: In TR-FRET formats the signal depends on donor and acceptor labels being close together.)

The target in assay [2] is T2, TYRO3 (Homo sapiens, UniProt Q06418).
T2 construct: recombinant phosphorylated forms of the kinase domains for AXL, MER and TYRO3; purchased Life Technologies PR7480A
T2 sequence (Q06418 518-790 limits assumed): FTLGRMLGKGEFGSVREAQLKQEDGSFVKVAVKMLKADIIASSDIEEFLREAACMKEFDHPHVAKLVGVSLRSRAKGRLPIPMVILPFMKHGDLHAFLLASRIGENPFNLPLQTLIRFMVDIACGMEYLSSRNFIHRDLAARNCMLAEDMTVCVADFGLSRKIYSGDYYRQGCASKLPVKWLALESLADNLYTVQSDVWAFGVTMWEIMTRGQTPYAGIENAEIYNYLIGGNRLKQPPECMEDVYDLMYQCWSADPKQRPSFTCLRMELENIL
Kind of assay: TR-FRET kinase assay, TYRO3. The class given is biochemical. The method, then: as §1, §2

Assay [3] concerns MBT-2 tumor. The assay can be described thus: MBT-2 syngeneic tumor model. The assay is classed as in vivo. The settings on record: MBT-2 in C3H mice, oral BID, FIG. 7A. The method, then: To test potential immunomodulatory activity of Compound 1 in vivo, antitumor efficacy studies were performed in syngeneic tumor models.
MBT-2 cells were obtained from the Japanese Collection of Research Bioresources Cell Bank and were maintained in DMEM supplemented with 10% FBS. MC38 cells were obtained from the NCI. 4T1 cells were obtained from ATCC and maintained in RPMI media supplemented with 10% FBS. For MBT-2 experiments, 5×10^5 MBT-2 cells were inoculated subcutaneously into the right hind flank of 6- to 8-week-old C3H mice or athymic nude mice (Charles River Laboratories, Wilmington, Mass.). For MC38 studies, 12-week old female C57BL/6 mice were inoculated with brei of MC38 tumors (in-vivo passage 6) into the right hind flank. For 4T1 studies, 7.5×10^5 4 T1 cells were inoculated subcutaneously into the right hind flank of 6- to 8-week-old female BALB/c mice or athymic nude mice (Charles River Laboratories). […] Mice were monitored for tumor growth and overt tolerability over the course of the experiment. […] Tumor volume was calculated using the formula (L×W^2)/2, where L and W refer to the length and width dimensions, respectively. Tumor growth inhibition (TGI) was calculated using the formula (1−(VT/VC))×100, where VT is the tumor volume of the treatment group on the last day of treatment, and VC is the tumor volume of the control group on the last day of treatment. […]

Broadly, the IC50 is the concentration that inhibits the measured activity by half. For the molecule `CC(C)C(=O)N1CCC(c2cc(-c3ccc(NC(=O)c4cn(C(C)C)c(=O)n(-c5ccccn5)c4=O)cc3)c3c(N)ncnn23)CC1` [Compound 1, N-(4-(4-Amino-7-(1-isobutyrylpiperidin-4-yl)pyrrolo[1,2-f][1,2,4]triazin-5-yl)phenyl)-1-isopropyl-2,4-dioxo-3-(pyridin-2-yl)-1,2,3,4-tetrahydropyrimidine-5-carboxamide], the IC50 in assay [1] stood at 0.61 ± 0.31 nM; in assay [2] (average from multiple lots, n=25, read-out: IC50 against TYRO3), 101 ± 27 nM. For the same molecule, in assay [2] (biochemical), the “selectivity over TYRO3” value was “approximately 30 fold”. The “antitumor efficacy (tumor volume)” value in assay [3] is “dose-dependent efficacy”.
